Laboratory results published in patent US20230143612A1 (Arbutus Biopharma Corporation, priority 2020, published 2023).

target: PD-L1 His protein / PD-1 Fc protein (Homo sapiens, UniProt Q9NZQ7); assay: HTRF Assay (PD-1/PD-L1 interaction); format: binding; details: PD-L1 His 6 nM, PD-1 Fc 6 nM
In short: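 Compounds tested from 20 μM down to 0.001 μM (3-fold) against 6 nM PD-L1 His and 6 nM PD-1 Fc, 15 min room temperature incubation. Detection after 1 h at room temperature with Tb cryptate anti-6HIS and XL665 anti-human IgG reagents (mixture at 0.35 nM and 6.7 nM), HTRF signal.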

Chain of PD-L1 His protein / PD-1 Fc protein (Q9NZQ7 19-238 limits assumed): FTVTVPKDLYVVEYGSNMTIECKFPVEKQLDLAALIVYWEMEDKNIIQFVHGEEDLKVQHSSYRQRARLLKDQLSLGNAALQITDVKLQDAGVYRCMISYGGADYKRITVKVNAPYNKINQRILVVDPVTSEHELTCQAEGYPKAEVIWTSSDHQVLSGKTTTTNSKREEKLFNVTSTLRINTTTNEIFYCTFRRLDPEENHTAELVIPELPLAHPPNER

| Compound | IC50 [nM] |
| --- | --- |
| COc1cc(-c2cccc(-c3cccc(-c4ccn5c(=O)c(CNC[C@@H]6CCC(=O)N6)cnc5c4)c3Cl)c2Cl)cnc1CNC[C@@H]1CCC(=O)N1 [Example 360, 8-(2,2′-Dichloro-3′-(5-methoxy-6-(((((S)-5-oxopyrrolidin-2-yl)-methyl)-amino)methyl)-pyridin-3-yl)-[1,1′-biphenyl]-3-yl)-3-(((((S)-5-oxopyrrolidin-2-yl)methyl)amino)methyl)-4H-pyrido[1,2-a]pyrimidin-4-one] | 0.7 |
| COc1cc(-c2cccc(-c3cccc(-c4ccn5c(=O)c(CN[C@H]6C[C@](C)(O)C6)cnc5c4)c3Cl)c2Cl)cnc1CN[C@H]1C[C@](C)(O)C1 [Example 361, 8-(2,2′-Dichloro-3′-(6-((((1r,3r)-3-hydroxy-3-methylcyclobutyl)amino)methyl)-5-methoxypyridin-3-yl)-[1,1′-biphenyl]-3-yl)-3-((((1r,3r)-3-hydroxy-3-methylcyclobutyl)amino)methyl)-4H-pyrido[1,2-a]pyrimidin-4-one] | 39 |
| COc1cc(-c2cccc(-c3cccc(-c4ccn5c(=O)c(CN(C)CCO)cnc5c4)c3Cl)c2Cl)cnc1CN(C)CCO [Example 362, 8-(2,2′-Dichloro-3′-(6-(((2-hydroxyethyl)(methyl)amino)methyl)-5-methoxypyridin-3-yl)-[1,1′-biphenyl]-3-yl)-3-(((2-hydroxyethyl)(methyl)amino)methyl)-4H-pyrido[1,2-a]pyrimidin-4-one] | 36 |
| COc1nc(-c2cccc(-c3cccc(-c4ccc5c(c4)CNCCN5C)c3Cl)c2Cl)ccc1CNC[C@@H]1CCC(=O)N1 [Example 363, (S)-5-((((6-(2,2′-Dichloro-3′-(1-methyl-2,3,4,5-tetrahydro-1H-benzo[e][1,4]diazepin-7-yl)-[1,1′-biphenyl]-3-yl)-2-methoxypyridin-3-yl)methyl)amino)methyl)pyrrolidin-2-one] | 85 |
| COc1nc(-c2cccc(-c3cccc(-c4ccc5c(c4)N(C)CCNC5)c3Cl)c2Cl)ccc1CNC[C@@H]1CCC(=O)N1 [Example 364, (S)-5-((((6-(2,2′-Dichloro-3′-(1-methyl-2,3,4,5-tetrahydro-1H-benzo[e][1,4]diazepin-8-yl)-[1,1′-biphenyl]-3-yl)-2-methoxypyridin-3-yl)methyl)amino)methyl)pyrrolidin-2-one] | 150 |
| COc1nc(-c2cccc(-c3cccc(-c4ccc5c(c4)cc4n5CCNC4)c3Cl)c2Cl)ccc1CNC[C@@H]1CCC(=O)N1 [Example 365, (S)-5-((((6-(2,2′-Dichloro-3′-(1,2,3,4-tetrahydropyrazino[1,2-a]indol-8-yl)-[1,1′-biphenyl]-3-yl)-2-methoxypyridin-3-yl)methyl)amino)methyl)919yrrolidine-2-one] | 13 |
| COc1nc(-c2cccc(-c3cccc(-c4ccc5c(n4)c(Cl)c(CNC[C@@H]4CCC(=O)N4)n5C)c3Cl)c2Cl)ccc1CNC[C@@H]1CCC(=O)N1 [Example 366, (S)-5-((((3-Chloro-5-(2,2′-dichloro-3′-(6-methoxy-5-(((((S)-5-oxopyrrolidin-2-yl)methyl)-amino)methyl)-pyridin-2-yl)-[1,1′-biphenyl]-3-yl)-1-methyl-1H-pyrrolo[3,2-b]pyridin-2-yl)methyl)amino)-methyl)-pyrrolidin-2-one] | 1.5 |
| COc1nc(-c2cccc(-c3cccc(-c4ccc5c(OC)c(CNC[C@H](C)O)cc(Cl)c5n4)c3Cl)c2Cl)ccc1CNC[C@@H]1CCC(=O)N1 [Example 367, (S)-5-((((6-(2,2′-Dichloro-3′-(8-chloro-6-((((S)-2-hydroxypropyl)amino)methyl)-5-methoxyquinolin-2-yl)-[1,1′-biphenyl]-3-yl)-2-methoxypyridin-3-yl)methyl)amino)methyl)pyrrolidin-2-one] | 21 |
| COc1nc(-c2cccc(-c3cccc(-c4ccn5c(=O)c(CNCC6(C)CCC(=O)N6)cnc5c4)c3Cl)c2Cl)ccc1CNC[C@@H]1CCC(=O)N1 (stereo partly drawn) [Example 368, 8-(2,2′-dichloro-3′-(6-methoxy-5-(((((S)-5-oxopyrrolidin-2-yl)-methyl)-amino)-methyl)-pyridin-2-yl)-[1,1′-biphenyl]-3-yl)-3-((((2-methyl-5-oxopyrrolidin-2-yl)methyl)-amino)-methyl)-4H-pyrido[1,2-a]pyrimidin-4-one] | 1 |
| COc1nc(-c2cccc(-c3cccc(-c4ccc5cc(CNC[C@@H]6CCC(=O)N6)ccc5n4)c3Cl)c2Cl)ccc1CNC[C@@H]1CCC(=O)N1 [Example 369, (5S)-5-[[[2-[2-Chloro-3-[2-chloro-3-[6-methoxy-5-[[[(2S)-5-oxopyrrolidin-2-yl]methylamino]methyl]-2-pyridyl]phenyl]phenyl]-6-quinolyl]methylamino]methyl]pyrrolidin-2-one] | 560 |
| COc1nc(-c2cccc(-c3cccc(-c4cnc5cc(CNC[C@@H]6CCC(=O)N6)ccc5c4)c3Cl)c2Cl)ccc1CNC[C@@H]1CCC(=O)N1 [Example 370, (5S)-5-[[[3-[2-Chloro-3-[2-chloro-3-[6-methoxy-5-[[[(2S)-5-oxopyrrolidin-2-yl]methylamino]methyl]-2-pyridyl]phenyl]phenyl]-7-quinolyl]methylamino]methyl]pyrrolidin-2-one] | 580 |
| COc1nc(-c2cccc(-c3cccc(-c4ccn5c(=O)c(C)c(CNCCO)nc5c4)c3Cl)c2Cl)ccc1CNC[C@@H]1CCC(=O)N1 [Example 371, (S)-8-(2,2′-Dichloro-3′-(6-methoxy-5-((((5-oxopyrrolidin-2-yl)methyl)amino)methyl)pyridin-2-yl)-[1,1′-biphenyl]-3-yl)-2-(((2-hydroxyethyl)amino)methyl)-3-methyl-4H-pyrido[1,2-a]pyrimidin-4-one] | 33 |
| COc1nc(-c2cccc(-c3cccc(-c4ccn5c(=O)c(C)c(CNC[C@@H]6CCC(=O)N6)nc5c4)c3Cl)c2Cl)ccc1CNC[C@@H]1CCC(=O)N1 [Example 372, 8-(2,2′-Dichloro-3′-(6-methoxy-5-(((((S)-5-oxopyrrolidin-2-yl)methyl)amino)methyl)pyridin-2-yl)-[1,1′-biphenyl]-3-yl)-3-methyl-2-(((((S)-5-oxopyrrolidin-2-yl)methyl)amino)methyl)-4H-pyrido[1,2-a]pyrimidin-4-one] | 60 |
| COc1nc(-c2cccc(-c3cccc(-c4ccn5c(=O)c(C)c(CN[C@H]6C[C@](C)(O)C6)nc5c4)c3Cl)c2Cl)ccc1CNC[C@@H]1CCC(=O)N1 [Example 373, 8-(2,2′-Dichloro-3′-(6-methoxy-5-(((((S)-5-oxopyrrolidin-2-yl)methyl)amino)methyl)pyridin-2-yl)-[1,1′-biphenyl]-3-yl)-2-((((1r,3r)-3-hydroxy-3-methylcyclobutyl)amino)methyl)-3-methyl-4H-pyrido[1,2-a]pyrimidin-4-one] | 33 |
| COc1nc(-c2cccc(-c3cccc(-c4ccn5c(=O)c6c(nc5c4)N(C)CCNC6)c3Cl)c2Cl)ccc1CNC[C@@H]1CCC(=O)N1 [Example 374, (S)-10-(2,2′-Dichloro-3′-(6-methoxy-5-((((5-oxopyrrolidin-2-yl)methyl)amino)methyl)pyridin-2-yl)-[1,1′-biphenyl]-3-yl)-1-methyl-2,3,4,5-tetrahydropyrido[1′,2′:1,2]pyrimido [4,5-e][1,4]diazepin-6(1H)-one] | 6.5 |
| COc1nc(-c2cccc(-c3cccc(-c4cnc5c(CNC[C@@H]6CCC(=O)N6)cn(C)c5c4)c3Cl)c2Cl)ccc1CNC[C@@H]1CCC(=O)N1 [Example 375, (S)-5-((((6-(2,2′-Dichloro-3′-(1-methyl-3-(((((S)-5-oxopyrrolidin-2-yl)methyl)amino)methyl)-1H-pyrrolo[3,2-b]pyridin-6-yl)-[1,1′-biphenyl]-3-yl)-2-methoxypyridin-3-yl)methyl)amino)methyl)pyrrolidin-2-one] | 180 |
| COc1nc(-c2cccc(-c3cccc(-c4ccn5c(=O)cc(CN[C@H]6C[C@](C)(O)C6)nc5c4)c3Cl)c2Cl)ccc1CNC[C@@H]1CCC(=O)N1 [Example 376, 8-(2,2′-Dichloro-3′-(6-methoxy-5-(((((S)-5-oxopyrrolidin-2-yl)methyl)amino)methyl)pyridin-2-yl)-[1,1′-biphenyl]-3-yl)-2-((((1r,3r)-3-hydroxy-3-methylcyclobutyl)amino)methyl)-4H-pyrido[1,2-a]pyrimidin-4-one] | 0.7 |
| COc1nc(-c2cccc(-c3cccc(-c4ccn5c(=O)c(C)c(CNC[C@H](C)O)nc5c4)c3Cl)c2Cl)ccc1CNC[C@@H]1CCC(=O)N1 [Example 377, 8-(2,2′-Dichloro-3′-(6-methoxy-5-(((((S)-5-oxopyrrolidin-2-yl)methyl)amino)methyl)pyridin-2-yl)-[1,1′-biphenyl]-3-yl)-2-((((S)-2-hydroxypropyl)amino)methyl)-3-methyl-4H-pyrido[1,2-a]pyrimidin-4-one] | 21 |
| COc1nc(-c2cccc(-c3cccc(-c4ccn5c(=O)c(CNCCO)cnc5c4)c3Cl)c2Cl)cc(Cl)c1CNC[C@@H]1CCC(=O)N1 [Example 378, (S)-8-(2,2′-Dichloro-3′-(4-chloro-6-methoxy-5-((((5-oxopyrrolidin-2-yl)methyl)amino)methyl)pyridin-2-yl)-[1,1′-biphenyl]-3-yl)-3-(((2-hydroxyethyl)amino)methyl)-4H-pyrido[1,2-a]pyrimidin-4-one] | 110 |
| COc1nc(-c2cccc(-c3cccc(-c4cnc5c(CNC[C@@H]6CCC(=O)N6)c(OC)nn5c4)c3Cl)c2Cl)ccc1CNC[C@@H]1CCC(=O)N1 [Example 379, (S)-5-((((6-(2,2′-Dichloro-3′-(2-methoxy-3-(((((S)-5-oxopyrrolidin-2-yl)methyl)amino)methyl)pyrazolo[1,5-a]pyrimidin-6-yl)-[1,1′-biphenyl]-3-yl)-2-methoxypyridin-3-yl)methyl)amino)methyl)pyrrolidin-2-one] | 5.6 |
| COc1nc(-c2cccc(-c3cccc(-c4ccn5c(CNC[C@@H]6CCC(=O)N6)cnc5c4)c3Cl)c2Cl)ccc1CNC[C@@H]1CCC(=O)N1 [Example 380] | 24 |
